Measurements reported in patent US6127420A, “L-N^5 -(1-imino-3-alkenyl) ornithine and related compounds and use thereof” (priority 1998, dated 2000).
Where two headings read alike, the source gives them in different places.

What was measured:
iNOS [1] = biological target: T1, iNOS (Mus musculus, UniProt P29477); assay: biochemical
Method: (§1) For determination of Ki of a compound, activity of NOS is determined by monitoring the conversion of L-[^14 C]arginine to L-[^14 C]citrulline. […] Reaction mixtures for iNOS are similar, but CaCl2 and calmodulin are omitted. Reaction is initiated by the addition of the enzyme, and the solutions are maintained at 25° C. for 4 min. Reaction mixtures are quenched by the addition of 200 μl of stop buffer containing 100 mM Na^+ Hepes buffer, pH 5.5, and 5 mM ethylene glycol bis (β-aminoethylether)-N,N,N',N"-tetraacetic acid (EGTA). The resulting samples are heated in a boiling water bath for 1 minute and chilled and centrifuged. A portion (225 μl) of the supernatant is applied to small Dowex 50 columns (Na^+ form, 1 ml resin), and the product L-[^14 C]citrulline is eluted with 2 ml of water and quantified by liquid scintillation counting.

eNOS [2] = biological target: T2, eNOS (Bos taurus, UniProt P29473); assay: biochemical
Method: as §1

nNOS [3] = biological target: T3, nNOS (Rattus norvegicus, UniProt P29476); assay: Time-dependent inactivation of nNOS (residual activity, oxyhemoglobin oxidation); type: biochemical; design: made in house; host or cells: stably transfected kidney 293 cells; settings: 25° C.; for inactivation of nNOS relative to 2.0 μM L-NMA (FIG. 2): 0.5 μM L-VNIO vs 2.0 μM L-NMA; for inactivation of nNOS (in words, FIG. 2): under the conditions examined
T3 sequence (P29476 whole entry): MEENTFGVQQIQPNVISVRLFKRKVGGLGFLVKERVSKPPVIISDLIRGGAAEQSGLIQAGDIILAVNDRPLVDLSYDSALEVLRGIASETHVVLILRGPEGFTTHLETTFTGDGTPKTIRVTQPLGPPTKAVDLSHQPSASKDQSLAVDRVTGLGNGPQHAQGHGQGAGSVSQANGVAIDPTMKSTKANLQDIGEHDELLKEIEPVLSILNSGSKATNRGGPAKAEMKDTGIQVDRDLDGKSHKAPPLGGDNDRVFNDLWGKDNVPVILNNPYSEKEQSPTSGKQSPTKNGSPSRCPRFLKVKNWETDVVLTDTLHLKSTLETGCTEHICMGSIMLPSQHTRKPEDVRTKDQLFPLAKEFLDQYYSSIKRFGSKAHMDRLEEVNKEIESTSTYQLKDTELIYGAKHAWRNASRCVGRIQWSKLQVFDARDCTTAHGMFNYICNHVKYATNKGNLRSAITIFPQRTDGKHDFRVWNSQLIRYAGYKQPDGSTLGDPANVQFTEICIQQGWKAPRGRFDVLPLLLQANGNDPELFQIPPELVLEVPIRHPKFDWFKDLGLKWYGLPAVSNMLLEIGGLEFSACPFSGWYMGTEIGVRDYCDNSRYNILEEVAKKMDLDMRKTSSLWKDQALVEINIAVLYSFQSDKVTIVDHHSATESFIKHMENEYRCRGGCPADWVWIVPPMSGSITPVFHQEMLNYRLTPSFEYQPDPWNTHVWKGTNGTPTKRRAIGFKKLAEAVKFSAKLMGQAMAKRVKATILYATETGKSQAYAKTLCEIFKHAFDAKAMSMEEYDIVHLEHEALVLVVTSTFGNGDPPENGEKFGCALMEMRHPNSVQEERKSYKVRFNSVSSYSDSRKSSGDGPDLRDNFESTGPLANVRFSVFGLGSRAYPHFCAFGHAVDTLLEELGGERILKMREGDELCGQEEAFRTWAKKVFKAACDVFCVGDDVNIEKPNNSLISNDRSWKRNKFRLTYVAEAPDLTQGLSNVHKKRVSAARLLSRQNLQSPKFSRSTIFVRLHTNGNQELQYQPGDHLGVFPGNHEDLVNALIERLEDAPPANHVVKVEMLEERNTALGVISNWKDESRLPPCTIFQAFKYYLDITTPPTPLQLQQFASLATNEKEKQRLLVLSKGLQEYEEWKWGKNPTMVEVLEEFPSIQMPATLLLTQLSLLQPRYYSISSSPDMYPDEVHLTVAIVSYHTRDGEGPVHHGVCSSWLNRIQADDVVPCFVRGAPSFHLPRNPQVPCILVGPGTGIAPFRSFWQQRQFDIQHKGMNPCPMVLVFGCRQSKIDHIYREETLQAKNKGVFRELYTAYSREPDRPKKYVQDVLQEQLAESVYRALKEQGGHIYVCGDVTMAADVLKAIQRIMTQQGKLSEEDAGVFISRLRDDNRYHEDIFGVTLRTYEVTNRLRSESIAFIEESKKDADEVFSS
Method: Nitric oxide-mediated oxidation of oxyhemoglobin was monitored at 401 nm (ε=0.038 μM^-1); the reference cuvette contained a similar mixture without enzyme. Rates were measured and used to calculate the residual activity. The results are shown in FIG. 1 where for ln A/Ao in the legend for the vertical axis, A is the residual activity of NOS at the time indicated and Ao is the activity of NOS at time zero (i.e., initial activity).
Determinations were carried out as described in Example XI. The results are shown in FIG. 2 where in (A/Ao) means the same as in Example XI.
Testing was carried out to compare inactivation by L-VNIO of the nNOS, eNOS and iNOS isoforms. Determinations were carried out as set forth in Example XI except that the reaction mixtures for iNOS omitted CaCl2 and calmodulin.

iNOS [4] = biological target: T1, iNOS; assay: Time-dependent inactivation of iNOS (residual activity, oxyhemoglobin oxidation; CaCl2 and calmodulin omitted); type: biochemical; settings: up to 100 μM L-VNIO, 25° C.
[5] = system: female Sprague-Dawley CFY rats; assay: Stroke volume after carotid artery ligation in rats; type: in vivo, rat; settings: 25 mg/kg i.v. bolus 30 minutes after occlusion; histology 24 hours after artery occlusion
Method: Both carotid arteries are ligated in two groups of female Sprague-Dawley CFY rats. After 10 minutes, ligations are released and flow is again allowed.
In the case of one group, L-VNIO (25 mg/kg) is administered by bolus injection through a venous catheter 30 minutes after occlusion of the arteries. In the case of the other group, no therapeutic agent is administered.

iNOS [6] = biological target: T1, iNOS; settings: for iNOS Ki/Km: Ki divided by Km for L-arginine
Method: as §1

eNOS [7] = biological target: T2, eNOS; assay: Time-dependent inactivation of eNOS (residual activity, oxyhemoglobin oxidation); type: biochemical, bovine; settings: 25° C.
nNOS [8] = biological target: T3, nNOS; settings: for nNOS Ki/Km: Ki divided by Km for L-arginine; for selectivity for nNOS (in words): vs eNOS (and iNOS for L-VNIO), on a Ki/Km basis
Method: as §1

eNOS [9] = biological target: T2, eNOS; settings: for eNOS Ki/Km: Ki divided by Km for L-arginine
Method: as §1

[10] = Migraine headache treatment of a patient with L-VNIO tablets; type: in vivo, human
Method: A person with a history of migraine headaches is provided with tablets containing 500 mg of L-VNIO. They are instructed to take one tablet at the first sign of migraine headache development and to take a second table 60 minutes later if the headache continues to develop. When a right-sided migraine headache begins, they take one tablet as instructed, and headache pain begins to decrease within 15 minutes and is absent within 45 minutes. […] The women therefore takes a second table as instructed and headache pain is absent within 30 minutes of taking the second tablet.

nNOS [11] = biological target: T3, nNOS; assay: biochemical
Method: as §1

[12] = first migraine, one 500 mg tablet

T1 sequence (P29477 whole entry): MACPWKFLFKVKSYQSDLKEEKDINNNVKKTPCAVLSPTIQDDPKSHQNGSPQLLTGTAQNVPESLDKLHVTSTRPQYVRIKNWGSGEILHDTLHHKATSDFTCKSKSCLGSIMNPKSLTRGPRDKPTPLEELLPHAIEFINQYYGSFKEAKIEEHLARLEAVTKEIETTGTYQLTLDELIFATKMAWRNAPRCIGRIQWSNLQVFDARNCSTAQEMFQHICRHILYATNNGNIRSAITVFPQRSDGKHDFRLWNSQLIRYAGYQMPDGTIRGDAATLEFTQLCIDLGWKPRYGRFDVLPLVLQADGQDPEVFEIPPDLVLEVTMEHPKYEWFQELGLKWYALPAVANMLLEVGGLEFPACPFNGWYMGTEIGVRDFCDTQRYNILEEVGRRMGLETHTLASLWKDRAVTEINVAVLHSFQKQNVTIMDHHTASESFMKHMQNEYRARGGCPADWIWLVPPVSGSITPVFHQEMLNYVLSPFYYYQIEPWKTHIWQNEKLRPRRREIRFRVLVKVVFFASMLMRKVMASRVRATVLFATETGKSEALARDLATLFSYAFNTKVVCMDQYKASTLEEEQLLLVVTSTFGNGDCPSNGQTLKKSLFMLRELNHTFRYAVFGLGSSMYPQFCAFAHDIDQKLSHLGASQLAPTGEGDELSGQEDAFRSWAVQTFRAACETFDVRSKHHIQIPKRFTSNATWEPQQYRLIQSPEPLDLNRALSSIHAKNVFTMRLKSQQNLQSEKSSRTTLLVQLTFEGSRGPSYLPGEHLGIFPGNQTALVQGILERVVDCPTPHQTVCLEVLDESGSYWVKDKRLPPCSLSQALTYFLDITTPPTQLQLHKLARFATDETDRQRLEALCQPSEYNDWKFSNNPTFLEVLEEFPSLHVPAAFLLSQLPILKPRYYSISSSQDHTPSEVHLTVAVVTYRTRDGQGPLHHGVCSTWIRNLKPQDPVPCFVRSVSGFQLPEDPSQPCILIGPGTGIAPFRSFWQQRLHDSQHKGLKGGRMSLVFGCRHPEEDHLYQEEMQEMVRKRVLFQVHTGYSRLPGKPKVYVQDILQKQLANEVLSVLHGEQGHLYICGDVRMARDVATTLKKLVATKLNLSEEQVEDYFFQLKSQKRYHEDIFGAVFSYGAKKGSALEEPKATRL
T2 sequence (P29473 2-1205): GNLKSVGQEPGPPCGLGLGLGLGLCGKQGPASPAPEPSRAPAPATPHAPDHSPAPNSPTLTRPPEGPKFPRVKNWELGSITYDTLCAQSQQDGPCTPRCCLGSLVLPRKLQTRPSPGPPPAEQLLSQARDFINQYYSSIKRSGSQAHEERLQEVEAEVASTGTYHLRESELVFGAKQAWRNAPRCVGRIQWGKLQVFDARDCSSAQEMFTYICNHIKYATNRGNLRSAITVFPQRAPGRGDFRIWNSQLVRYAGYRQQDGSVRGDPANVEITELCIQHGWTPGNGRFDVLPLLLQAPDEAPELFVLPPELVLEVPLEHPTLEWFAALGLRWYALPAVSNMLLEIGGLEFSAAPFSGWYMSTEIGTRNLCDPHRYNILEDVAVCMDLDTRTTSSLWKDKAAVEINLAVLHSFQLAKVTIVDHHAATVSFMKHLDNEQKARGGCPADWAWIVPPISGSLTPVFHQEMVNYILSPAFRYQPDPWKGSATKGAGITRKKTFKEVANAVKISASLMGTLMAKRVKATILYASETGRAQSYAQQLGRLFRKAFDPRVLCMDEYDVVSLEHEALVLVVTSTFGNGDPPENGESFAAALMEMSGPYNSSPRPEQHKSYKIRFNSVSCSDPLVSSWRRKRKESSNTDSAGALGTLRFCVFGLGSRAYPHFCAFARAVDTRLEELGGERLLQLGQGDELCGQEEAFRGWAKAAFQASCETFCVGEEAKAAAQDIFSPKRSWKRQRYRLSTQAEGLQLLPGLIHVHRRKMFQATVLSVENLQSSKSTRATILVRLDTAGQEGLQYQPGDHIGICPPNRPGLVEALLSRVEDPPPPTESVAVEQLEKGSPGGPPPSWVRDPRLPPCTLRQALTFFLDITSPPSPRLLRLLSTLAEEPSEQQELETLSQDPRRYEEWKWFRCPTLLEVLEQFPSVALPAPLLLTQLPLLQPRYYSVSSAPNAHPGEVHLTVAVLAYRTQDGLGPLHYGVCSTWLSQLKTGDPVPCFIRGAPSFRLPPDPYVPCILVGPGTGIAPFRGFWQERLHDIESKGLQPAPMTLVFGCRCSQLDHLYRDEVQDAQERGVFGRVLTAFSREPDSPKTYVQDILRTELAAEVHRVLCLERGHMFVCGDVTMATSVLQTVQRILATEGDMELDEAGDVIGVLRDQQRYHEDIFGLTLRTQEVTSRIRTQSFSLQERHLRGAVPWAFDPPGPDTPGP

SMILES	Ki (iNOS [1]) [µM]	Ki (eNOS [2]) [µM]	inactivation of nNOS relative to 2.0 μM L-NMA (FIG. 2) (nNOS [3])	iNOS Ki/Km (iNOS [6])	nNOS Ki/Km (nNOS [8])	selectivity for nNOS (in words) (nNOS [8])	eNOS Ki/Km (eNOS [9])	inactivation of nNOS (in words, FIG. 2) (nNOS [3])	also measured
CC(=N)NCCC[C@H](N)C(=O)O [L-NIO]	3.9	3.9							
CNC(=N)NCCC[C@H](N)C(=O)O [L-NMA, N^ω -methyl-L-arginine, reference compound]			comparable						
C=CCC(=N)NCCC[C@H](N)C(=O)O [L-VNIO, N^5-(1-imino-3-butenyl)-L-ornithine]		12	comparable with that seen with 2.0 μM L-NMA	4.80	0.07	selective inhibitor of nNOS	3.33		inactivation of iNOS (FIG. 3) (iNOS [4]): does not inactivate iNOS; stroke volume compared to group receiving no treatment [5]: significant reduction in stroke volume; inhibition of iNOS (in words) (iNOS [6]; conclusion from Table I): poor inhibitor of eNOS and INOS; Ki (iNOS [6]; read-out: iNOS Ki, mouse iNOS, 25° C., pH 7.4, initial rate conditions, duplicates agreed within ±5%): 60 µM; inactivation of eNOS (FIG. 3) (eNOS [7]; 10 μM L-VNIO): relatively weak inactivator of eNOS; rate of inactivation of eNOS compared with nNOS (FIG. 3) (eNOS [7]; 20-fold higher concentration of L-VNIO: 10 μM eNOS vs 0.5 μM nNOS): does not match that seen with nNOS; inhibition of nNOS (in words) (nNOS [8]; conclusion from Table I): potent inhibitor of nNOS; Ki (nNOS [8]; read-out: nNOS Ki, rat nNOS, 25° C., pH 7.4, initial rate conditions, duplicates agreed within ±5%): 0.1 µM; inhibition of eNOS (in words) (eNOS [9]; conclusion from Table I): poor inhibitor of eNOS; inactivation of nNOS relative to 10 μM L-NIO (FIG. 2) (nNOS [3]; 0.5 μM L-VNIO vs 10 μM L-NIO): greater than that seen with 10 μM L-NIO; inactivation of nNOS (FIG. 3) (nNOS [3]; 0.5 μM L-VNIO): strong inactivator of nNOS; inactivation of nNOS (FIG. 1) (nNOS [3]; L-VNIO 0.1-0.8 μM, D-VNIO 100 μM): caused a first-order inactivation of nNOS; time until headache pain begins to decrease [10, 12]: ≤ 15 min; time until headache pain is absent [10, 12]: ≤ 45 min; pain relief by the first tablet, following day ([10]; following day, first 500 mg tablet): pain is not fully alleviated by the first tablet; time until headache pain is absent after the second tablet ([10]; following day, second 500 mg tablet 60 minutes after first): ≤ 30 min
CCCC(=N)NCCC[C@H](N)C(=O)O [ethyl-L-NIO, reference compound]	12	18		0.96	3.79	do not show biologically significant selectivity for nNOS over eNOS	5.00	does not inactivate nNOS	Ki (nNOS [11]): 5.3 µM; selectivity for iNOS over nNOS and eNOS (iNOS [6]; on a Ki/Km basis): 3 to 5 fold
CCC(=N)NCCC[C@H](N)C(=O)O [methyl-L-NIO]	9.5	10						much weaker inactivator of nNOS	
